Experimental data published in patent publication US11851445B2, “Compounds and uses thereof” (Foghorn Therapeutics Inc., priority 2020, dated 2023).
Entries after “also recorded” stand apart in the source; their conditions may differ.

Legend:
BRD9 = target: T1, BRD9 (Homo sapiens, UniProt Q9H8M2); experiment: BRD9 degradation in synovial sarcoma tumor in vivo, western blot (Example 12); parameters: degradation endogenous BRD9 protein in two synovial sarcoma cell lines; endogenous in cells; host or cells: SYO1 (SYO-1) synovial sarcoma cells; conditions: 1 mg/kg, i.p., 4 weeks; tumors 8, 72 and 168 hours post last dose; FIG. 15
T1 sequence (Q9H8M2 1-597): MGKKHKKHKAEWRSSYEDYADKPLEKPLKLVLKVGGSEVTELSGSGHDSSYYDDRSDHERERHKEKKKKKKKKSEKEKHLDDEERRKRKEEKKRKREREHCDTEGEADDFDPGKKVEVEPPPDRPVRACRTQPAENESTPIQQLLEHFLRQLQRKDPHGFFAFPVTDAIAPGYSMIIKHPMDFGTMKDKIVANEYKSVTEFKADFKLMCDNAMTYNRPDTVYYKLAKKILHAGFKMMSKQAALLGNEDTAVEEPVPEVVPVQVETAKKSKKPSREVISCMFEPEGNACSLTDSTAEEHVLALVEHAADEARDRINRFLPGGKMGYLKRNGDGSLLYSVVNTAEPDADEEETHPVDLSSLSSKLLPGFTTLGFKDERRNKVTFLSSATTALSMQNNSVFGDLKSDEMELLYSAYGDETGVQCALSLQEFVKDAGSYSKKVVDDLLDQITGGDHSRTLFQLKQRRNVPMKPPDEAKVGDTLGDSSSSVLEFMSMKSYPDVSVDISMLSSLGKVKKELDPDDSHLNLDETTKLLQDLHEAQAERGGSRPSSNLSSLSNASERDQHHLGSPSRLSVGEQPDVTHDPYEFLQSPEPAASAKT
Method: Method: Mice were treated with D1, 1 mg/kg, i.p. for 4 weeks. Mice were then euthanized, and tumors were collected at 8 hours, 72 hours, and 168 hours post last dose. Tumors were lysed with 1× RIPA lysis buffer (Boston BioProducts, BP-115D) with protease and phosphatase protein inhibitor (Roche Applied Science #04906837001 & 05892791001). Equal amounts of lysate (30 μg) were loaded in 4-12% Bis-Tris Midi Protein Gels in 1×MOPS buffer; samples ran at 120 V for 120 minutes. Protein was transferred to membrane with TransBlot at 250 mA for 150 minutes, and then membranes were blocked with Odyssey blocking buffer for 1 hour at room temperature. Membranes were hybridized overnight in cold room with primary antibodies. Images acquired using Li-COR imaging system (Li-COR Biotechnology, Lincoln, Nebr.).

[1] = test system: SYO-1 human biphasic synovial sarcoma tumor; experiment: SYO-1 xenograft tumor growth in NOD SCID mice; assay type: in vivo; conditions: 1 mg/kg, i.p., daily, 3 weeks; FIG. 14
Method: Method: NOD SCID mice (Beijing Anikeeper Biotech, Beijing) were inoculated subcutaneously on the right flank with the single cell suspension of SYO-1 human biphasic synovial sarcoma tumor cells (5×106) in 100 μL Dulbecco's Modified Eagle Medium (DMEM) with 10% fetal bovine serum (FBS). The mice were randomized into either control group [10% dimethyl sulfoxide (DMSO), 40% polyethylene glycol (PEG400) and 50% water], or treatment group D1 when the mean tumor size reached about 117 mm^3. Mice were dosed daily through intraperitoneal (i.p.) route over the course of 3 weeks. All dose volumes were adjusted by body weights in terms of mg/kg.

[2] = test system: non-synovial control cancer cell lines (RD, HCT116, and Calu6); experiment: Growth of non-synovial control cancer cell lines, crystal violet, day 14 (Example 3); assay type: cell-based; conditions: FIG. 8
Method: (§1) Procedure: Cells were seeded into 6-well or 12-well plates and were treated daily with a BRD9 degrader (Compound 1), a bromo-domain BRD9 binder (Compound 2), E3 ligase binder (lenalidomide), DMSO, or staurosporin (positive control for cell killing), at indicated concentrations. The number of cells was optimized for each cell line. Growth media was refreshed every 5 days. By day 14, medium was removed, cells were washed with PBS, and stained using 500 μL of 0.005% (w/v) crystal violet solution in 25% (v/v) methanol for at least 1 hour at room temperature. Subsequently plates were scanned on an Odyssey CLx Imaging system.

[3] = test system: synovial sarcoma cell lines (SYO1, Yamato, HS-SY-II, and ASKA); experiment: Growth of synovial sarcoma cell lines (Example 2: confluency, crystal violet, colonies); assay type: cell-based; conditions: FIGS. 4, 5, 6
Method: (§2) Cells were treated with DMSO or the BRD9 degrader, Compound 1, at indicated concentrations, and proliferation was monitored from day 7 to day 14 by measuring confluency over time using an IncuCyte live cell analysis system (FIG. 4). Growth medium and compounds were refreshed every 3-4 days.
(§3) Cells were seeded into 12-well plates and treated with DMSO, 1 μM BRD9 inhibitor, Compound 2 (also known as BI-7273, see Martin et al, J Med Chem. 59(10):4462-4475 (2016); see structure of compound 2 below), or 1 μM BRD9 degrader, Compound 1.
(§4) The number of cells was optimized for each cell line. Growth medium and compounds were refreshed every 3-5 days. SYO1, Yamato, A549, 293T and HS-SY-II cells were fixed and stained at day 11. ASKA cells were fixed and stained at day 23. Staining was done by incubation with crystal violet solution (0.5 g Crystal Violet, 27 ml 37% Formaldehyde, 100 mL 10×PBS, 10 mL Methanol, 863 dH20 to 1 L) for 30 min followed by 3× washes with water and drying the plates for at least 24 h at room temperature. Subsequently plates were scanned on an Odyssey CLx Imaging system (FIG. 5).
(§5) Cells were seeded into 96-well ultra-low cluster plate (Costar, #7007) in 200 μL complete media and treated at day 2 with DMSO, Staurosporin, or BRD9 degrader, Compound 1, at indicated doses (FIG. 2C). Media and compounds were changed every 5 d and cell colonies were imaged at day 14.

SYO1 cells [4] = experiment: Cell cycle analysis, Click-iT Plus EdU flow cytometry; assay type: cell-based, human; conditions: 200 nM or 1 μM, 8 or 13 days; compared to DMSO and lenalidomide
Method: (§6) Procedure: SYO1 cells were treated for 8 or 13 days with DMSO, a BRD9 degrader (Compound 1) at 200 nM or 1 μM, or an E3 ligase binder (lenalidomide) at 200 nM. Compounds were refreshed every 5 days. Cell cycle analysis was performed using the Click-iT™ Plus EdU Flow Cytometry Assay (Invitrogen). The apoptosis assay was performed using the Annexin V-FITC Apoptosis Detection Kit (Sigma A9210). Assays were performed according to the manufacturer's protocol.

[5] = test system: synovial sarcoma cell lines (SYO1, HS-SY-II, and ASKA); experiment: Growth of synovial sarcoma cell lines, crystal violet, day 14 (Example 3); assay type: cell-based
Method: as §1

SYO1 cells [6] = experiment: Apoptosis assay, Annexin V-FITC; assay type: cell-based, human; conditions: 8 days; compared to DMSO controls
Method: as §6

[7] = test system: non-synovial control cancer cell lines (293T, A549, G401); experiment: Growth of non-synovial control cancer cell lines (Example 2); assay type: cell-based; conditions: FIGS. 4, 5, 6
Method: as §2, §3, §4, §5

Structure (SMILES)	BRD9 level in tumor (BRD9)	tumor growth [1]	growth of the cells [2]	growth of the cells [3]	numbers of cells in the S-phase of the cell cycle (SYO1 cells [4])	growth of the cells ([5]; SYO1, HS-SY-II, ASKA, day 14, FIG. 7)	growth inhibition compared with the other treatments ([5]; all synovial cell lines)	numbers of early- and late-apoptotic cells (SYO1 cells [6])	growth of the cells [7]
COc1cc(-c2cn(C)c(=O)c3cnc(N4CCC4)cc23)cc(OC)c1CN1CCC(CN2CCC3(CC2)CN(c2ccc4c(c2)C(=O)N(C2CCC(=O)NC2=O)C4)C3)CC1 (racemic) [Compound D1, 3-[6-(7-[[1-([4-[6-(azetidin-1-yl)-2-methyl-1-oxo-2,7-naphthyridin-4-yl]-2,6-dimethoxyphenyl]methyl)piperidin-4-yl]methyl]-2,7-diazaspiro[3.5]nonan-2-yl)-1-oxo-3H-isoindol-2-yl]piperidine-2,6-dione]	complete degradation of BRD9 target up to 168 hours after dose; also recorded: BRD9 inhibition	tumor growth inhibition							
COc1cc(-c2cn(C)c(=O)c3cnccc23)cc(OC)c1CN(C)CC(=O)NCCOCCOCCNc1cccc2c1C(=O)N(C1CCC(=O)NC1=O)C2=O (stereo not drawn) [Compound 1, dBRD9]			did not result in inhibition of the growth	inhibition of the growth of the cells	reduced numbers of cells in the S-phase	inhibition of the growth of the cells	most significant growth inhibition	increased numbers of early- and late-apoptotic cells	does not result in inhibition of the growth
